Reference: the RepoRT retention time repository (doi:10.1016/j.jhazmat.2019.121712)

Test: Thermo Scientific Acclaim RSLC 120 C18, 100 × 2.1 mm, 2.2 µm, 30 °C; A: 90% water + 10% methanol + 0.01% formic acid + 5 mM ammonium formate; B: methanol + 0.01% formic acid + 5 mM ammonium formate; gradient (min/%B) 0.1/1 3/39 14/99.9 16/99.9
Conditions: stereoisomer not certain

SMILES	LC retention time
NC12CC3CC(CC(C3)C1)C2	4.86 min
CNC(C)Cc1ccc(O)c(O)c1 (centres undefined)	2.59 min
CC12Cc3cn[nH]c3CC1CCC1C2CCC2(C)C1CCC2(C)O (centres undefined)	11.3 min
CCCCCn1cc(C(=O)c2cccc3ccccc23)c2cccc(O)c21	11.8 min
CCOC(=O)c1ccccc1C(=O)OCC	8.5 min
CCN(CC)C(C)C(=O)c1ccccc1 (centres undefined)	4.11 min
CCOC(=O)C(CCc1ccccc1)NC(C)C(=O)N1C(C(=O)O)CC2CCCC21 (centres undefined)	8.56 min
CC12CCC3C(CCC4=CC(=O)CCC43C)C1CCC2=O (centres undefined)	9.36 min
CC(C)NCC(O)COc1ccc(CC(N)=O)cc1 (centres undefined)	3.09 min
CC(C)C1(NC(=O)C2CC3c4cccc5[nH]cc(c45)CC3N(C)C2)OC2(O)C3CCCN3C(=O)C(Cc3ccccc3)N2C1=O (centres undefined)	8.17 min
CCCOC(=O)NCCCN(C)C	3.5 min
COC(=O)C(c1ccccc1)C1CCCCN1 (centres undefined)	4.96 min
CSC(C)=NOC(=O)N(C)SN(C)C(=O)ON=C(C)SC	7.64 min
CCOC(=O)C1CC(=O)C(=C(O)C2CC2)C(=O)C1 (centres undefined)	8.45 min
NC(=O)C(CCN1CCCCC1)(c1ccccc1)c1ccccc1	5.19 min
CN(C)P(=O)(OP(=O)(N(C)C)N(C)C)N(C)C	5.36 min
CNCC(O)c1cccc(NS(C)(=O)=O)c1 (centres undefined)	2.54 min
CNC(=O)Oc1cccc2c1OC(C)(C)C2O (centres undefined)	5.09 min
CCOc1cc(CC(=O)NC(CC(C)C)c2ccccc2N2CCCCC2)ccc1C(=O)O (centres undefined)	11.9 min
CC(=O)Nc1c(C)n(C)n(-c2ccccc2)c1=O	3.94 min
CCN(CCCCOC(=O)c1ccc(OC)c(OC)c1)C(C)Cc1ccc(OC)cc1 (centres undefined)	6.79 min
CCCCOC(=O)N(C)SN(C)C(=O)Oc1cccc2c1OC(C)(C)C2	12.1 min
CSc1nc(NC(C)C)nc(NC(C)C)n1	10.1 min
CCSC(=O)N(CC(C)C)CC(C)C	12 min
CC(N)Cc1ccc2occc2c1 (centres undefined)	4.79 min
CCc1cccc(C)c1N1C(=O)COCC1C (centres undefined)	7.89 min
CCOC(=O)CSc1nc(C(C)(C)C)nn1C(=O)N(C)C	6.38 min
CC(COc1ccccc1Cc1ccccc1)N1CCCCC1 (centres undefined)	8.32 min
Cn1c([N+](=O)[O-])cnc1COC(N)=O	3.55 min
